Laboratory results taken from the NIST ThermoML archive (doi:10.1016/j.tca.2006.03.023).
Numbers after ± are expanded uncertainties.

Details: 298 K; 101.33 kPa; Crystal; X-ray diffraction

mass density [kg/m3] | SMILES
1476 ± 2 | O=P([O-])([O-])[O-].[Eu+3] [europium phosphate]
1428 ± 2 | O=P([O-])([O-])[O-].[Sm+3] [samarium phosphate]
